Values belong to the compound of their own block, whether it stands above or below them.
Experiments:
PIK3R4 = target: T1, PIK3R4 (Homo sapiens, UniProt Q99570); assay: Imatinib-matrix competition in K562 lysate; format: binding; conditions: read-out: RB50 (the source's name)
T1 construct: endogenous in cells; host or cells: K562

PSKH1 = PSKH1 (Homo sapiens, UniProt P11801); assay: biochemical
BRDT = BRDT (Homo sapiens, UniProt Q58F21); assay: biochemical
AAK1 = target: T2, AAK1 (Homo sapiens, UniProt Q2M2I8); assay: KAM-matrix competition in K562 lysate; format: binding
T2 construct: endogenous in cells; host or cells: K562
Protocol: (§1) For synthesis of KAM-derivatized resin, packed NHS-activated sepharose 4 fast flow resin (volume = 2 mL; GE Healthcare) was washed with anhydrous DMSO (3 × 10 mL). To the washed NHS-activated sepharose resin was added 0.5 mM KAM in anhydrous DMSO (8 mL; 2 μmol compound/mL of resin), followed by the addition of triethylamine (30 μL). The reaction mixture was vortexed to mix and pelleted by centrifugation (100 x g, 2 min). An aliquot of the supernatant (50 μL) was saved for LC/MS analysis. The reaction mixture was allowed incubate overnight at room temp with end-over-end rotating agitation. On the following day, the reaction mixture was pelleted by centrifugation (100 x g, 2 min). An aliquot of the supernatant (50 μL) was saved for LC/MS analysis. […] 2-(2-Aminoethoxy)ethanol (100 μL; Sigma-Aldrich) was added to the reaction mixture, vortexed, and incubate overnight at room temp with end-over-end agitation. The KAM-derivatized resin was then washed with anhydrous DMSO (3 × 10 mL) and 95% EtOH (3 × 10 mL).
(§2) Data were visualized for further analysis using Spotfire DXP.

CDK9 = target: T3, CDK9 (Homo sapiens, UniProt P50750); assay: KAM-matrix competition in K562 lysate; format: binding
T3 construct: endogenous in cells; host or cells: K562
Protocol: as §1, §2

GSK3A = target: T4, GSK3A (Homo sapiens, UniProt P49840); assay: KAM-matrix competition in K562 lysate; format: binding
T4 construct: endogenous in cells; host or cells: K562
Protocol: as §1, §2

GSK3B = target: T5, GSK3B (Homo sapiens, UniProt P49841); assay: KAM-matrix competition in K562 lysate; format: binding
T5 construct: endogenous in cells; host or cells: K562
Protocol: as §1, §2

NEK9 = target: T6, NEK9 (Homo sapiens, UniProt Q8TD19); assay: KAM-matrix competition in K562 lysate; format: binding
T6 construct: endogenous in cells; host or cells: K562
T6 sequence (Q8TD19 1-979): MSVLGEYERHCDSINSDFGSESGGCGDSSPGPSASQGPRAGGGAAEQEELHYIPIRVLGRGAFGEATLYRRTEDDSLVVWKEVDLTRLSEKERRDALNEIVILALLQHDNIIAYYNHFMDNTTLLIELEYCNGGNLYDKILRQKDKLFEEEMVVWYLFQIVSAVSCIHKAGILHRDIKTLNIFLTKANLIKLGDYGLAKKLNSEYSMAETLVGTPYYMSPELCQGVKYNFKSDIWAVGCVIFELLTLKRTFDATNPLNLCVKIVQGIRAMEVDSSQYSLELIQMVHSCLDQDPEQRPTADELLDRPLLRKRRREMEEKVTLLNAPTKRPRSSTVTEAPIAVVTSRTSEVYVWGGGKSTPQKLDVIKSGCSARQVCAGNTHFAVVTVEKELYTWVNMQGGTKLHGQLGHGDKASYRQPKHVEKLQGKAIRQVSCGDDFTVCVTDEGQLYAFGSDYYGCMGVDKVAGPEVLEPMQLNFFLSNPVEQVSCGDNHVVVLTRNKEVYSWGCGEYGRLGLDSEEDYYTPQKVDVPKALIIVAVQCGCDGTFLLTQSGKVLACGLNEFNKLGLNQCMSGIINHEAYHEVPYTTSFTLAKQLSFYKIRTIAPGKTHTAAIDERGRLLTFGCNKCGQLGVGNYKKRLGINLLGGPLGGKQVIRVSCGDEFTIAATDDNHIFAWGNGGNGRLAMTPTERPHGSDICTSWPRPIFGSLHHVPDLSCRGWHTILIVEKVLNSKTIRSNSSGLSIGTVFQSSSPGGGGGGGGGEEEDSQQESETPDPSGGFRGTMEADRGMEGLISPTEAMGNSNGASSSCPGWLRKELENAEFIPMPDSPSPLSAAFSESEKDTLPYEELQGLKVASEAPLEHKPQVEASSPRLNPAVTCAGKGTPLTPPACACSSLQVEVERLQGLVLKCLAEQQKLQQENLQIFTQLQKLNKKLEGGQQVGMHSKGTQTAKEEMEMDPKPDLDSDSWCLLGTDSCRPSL
Protocol: as §1, §2

MAP2K5 = target: T7, MAP2K5 (Homo sapiens, UniProt Q13163); assay: KAM-matrix competition in K562 lysate; format: binding; conditions: relative to 0 uM KAM = 0;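 also: median log10 fold change of treatment over DMSO control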
T7 construct: endogenous in cells; host or cells: K562
T7 sequence (Q13163 1-448): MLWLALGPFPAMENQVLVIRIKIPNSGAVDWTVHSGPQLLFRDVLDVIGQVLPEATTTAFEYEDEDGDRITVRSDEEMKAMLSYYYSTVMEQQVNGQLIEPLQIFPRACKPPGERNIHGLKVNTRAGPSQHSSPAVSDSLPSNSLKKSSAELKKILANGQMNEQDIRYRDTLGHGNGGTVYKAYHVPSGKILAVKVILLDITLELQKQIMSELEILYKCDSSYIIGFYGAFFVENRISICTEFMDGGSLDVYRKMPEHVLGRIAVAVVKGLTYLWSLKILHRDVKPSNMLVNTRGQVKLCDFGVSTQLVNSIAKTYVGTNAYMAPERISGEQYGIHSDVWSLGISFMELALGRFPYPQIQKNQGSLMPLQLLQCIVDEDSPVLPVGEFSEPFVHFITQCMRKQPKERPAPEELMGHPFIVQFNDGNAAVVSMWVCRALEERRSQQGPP
Protocol: Supplement 12953_2017_125_MOESM1_ESM.zip/MS_Supp Info.xlsx, sheet "KAM" | column: 10 uM KAM; 1 uM KAM; 0.1 uM KAM; 0.01 uM KAM

T4 sequence (P49840 whole entry): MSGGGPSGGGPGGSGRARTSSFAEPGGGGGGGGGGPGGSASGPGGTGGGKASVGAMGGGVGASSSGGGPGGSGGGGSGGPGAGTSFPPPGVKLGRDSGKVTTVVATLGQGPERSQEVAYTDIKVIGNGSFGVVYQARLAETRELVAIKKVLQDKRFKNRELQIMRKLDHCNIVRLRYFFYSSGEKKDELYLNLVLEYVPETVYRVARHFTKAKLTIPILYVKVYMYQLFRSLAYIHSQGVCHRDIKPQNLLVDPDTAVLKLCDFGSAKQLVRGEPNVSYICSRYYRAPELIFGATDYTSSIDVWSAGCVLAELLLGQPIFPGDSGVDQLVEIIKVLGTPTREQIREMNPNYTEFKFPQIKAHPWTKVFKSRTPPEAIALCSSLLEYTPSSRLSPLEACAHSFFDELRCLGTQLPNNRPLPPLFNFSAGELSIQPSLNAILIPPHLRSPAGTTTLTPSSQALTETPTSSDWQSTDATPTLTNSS
T5 sequence (P49841 whole entry): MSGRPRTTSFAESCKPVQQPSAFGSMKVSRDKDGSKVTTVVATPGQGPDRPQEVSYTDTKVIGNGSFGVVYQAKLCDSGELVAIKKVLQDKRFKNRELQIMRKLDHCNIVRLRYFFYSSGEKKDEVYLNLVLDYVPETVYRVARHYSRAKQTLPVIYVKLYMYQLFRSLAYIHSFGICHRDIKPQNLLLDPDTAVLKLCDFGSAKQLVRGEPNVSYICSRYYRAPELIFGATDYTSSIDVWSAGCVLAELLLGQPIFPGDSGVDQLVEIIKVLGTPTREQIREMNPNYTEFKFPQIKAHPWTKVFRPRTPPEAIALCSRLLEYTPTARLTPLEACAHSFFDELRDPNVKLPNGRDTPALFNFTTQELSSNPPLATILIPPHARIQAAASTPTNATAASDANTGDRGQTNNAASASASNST
T2 sequence (Q2M2I8 whole entry): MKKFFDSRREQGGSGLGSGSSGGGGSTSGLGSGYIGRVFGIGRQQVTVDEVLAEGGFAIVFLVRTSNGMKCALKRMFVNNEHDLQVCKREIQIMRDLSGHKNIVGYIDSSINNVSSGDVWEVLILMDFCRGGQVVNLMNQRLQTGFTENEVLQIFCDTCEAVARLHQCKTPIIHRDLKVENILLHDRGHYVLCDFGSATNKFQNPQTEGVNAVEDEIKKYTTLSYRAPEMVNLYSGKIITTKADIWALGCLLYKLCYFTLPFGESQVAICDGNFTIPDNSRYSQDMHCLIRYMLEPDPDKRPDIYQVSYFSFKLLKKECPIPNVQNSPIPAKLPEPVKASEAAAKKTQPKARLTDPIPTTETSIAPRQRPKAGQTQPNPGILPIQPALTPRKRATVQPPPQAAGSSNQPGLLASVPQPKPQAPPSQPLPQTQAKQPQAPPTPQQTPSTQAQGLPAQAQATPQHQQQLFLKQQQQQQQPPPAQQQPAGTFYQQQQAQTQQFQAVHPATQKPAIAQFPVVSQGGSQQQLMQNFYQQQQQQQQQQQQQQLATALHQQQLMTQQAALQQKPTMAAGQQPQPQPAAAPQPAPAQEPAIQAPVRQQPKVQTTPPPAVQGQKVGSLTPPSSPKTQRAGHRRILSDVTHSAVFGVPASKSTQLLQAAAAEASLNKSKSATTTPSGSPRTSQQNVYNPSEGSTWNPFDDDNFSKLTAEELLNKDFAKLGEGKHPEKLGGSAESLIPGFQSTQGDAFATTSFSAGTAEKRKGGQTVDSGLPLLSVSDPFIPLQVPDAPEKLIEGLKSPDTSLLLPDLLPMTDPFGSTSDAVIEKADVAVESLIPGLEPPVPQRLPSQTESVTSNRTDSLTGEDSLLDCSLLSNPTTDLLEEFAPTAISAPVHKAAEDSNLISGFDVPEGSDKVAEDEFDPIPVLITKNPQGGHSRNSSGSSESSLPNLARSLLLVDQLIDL
T3 sequence (P50750 whole entry): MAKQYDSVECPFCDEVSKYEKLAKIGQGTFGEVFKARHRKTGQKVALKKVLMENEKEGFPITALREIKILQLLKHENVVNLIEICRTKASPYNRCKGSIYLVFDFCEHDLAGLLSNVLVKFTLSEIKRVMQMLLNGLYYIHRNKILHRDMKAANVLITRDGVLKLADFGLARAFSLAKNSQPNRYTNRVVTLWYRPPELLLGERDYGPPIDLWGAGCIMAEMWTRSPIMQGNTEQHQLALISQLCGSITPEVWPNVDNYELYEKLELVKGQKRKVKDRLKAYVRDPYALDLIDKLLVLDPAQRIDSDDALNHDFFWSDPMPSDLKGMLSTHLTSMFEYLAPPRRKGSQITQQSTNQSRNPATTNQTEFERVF
T3 sequence (O60563 whole entry partner): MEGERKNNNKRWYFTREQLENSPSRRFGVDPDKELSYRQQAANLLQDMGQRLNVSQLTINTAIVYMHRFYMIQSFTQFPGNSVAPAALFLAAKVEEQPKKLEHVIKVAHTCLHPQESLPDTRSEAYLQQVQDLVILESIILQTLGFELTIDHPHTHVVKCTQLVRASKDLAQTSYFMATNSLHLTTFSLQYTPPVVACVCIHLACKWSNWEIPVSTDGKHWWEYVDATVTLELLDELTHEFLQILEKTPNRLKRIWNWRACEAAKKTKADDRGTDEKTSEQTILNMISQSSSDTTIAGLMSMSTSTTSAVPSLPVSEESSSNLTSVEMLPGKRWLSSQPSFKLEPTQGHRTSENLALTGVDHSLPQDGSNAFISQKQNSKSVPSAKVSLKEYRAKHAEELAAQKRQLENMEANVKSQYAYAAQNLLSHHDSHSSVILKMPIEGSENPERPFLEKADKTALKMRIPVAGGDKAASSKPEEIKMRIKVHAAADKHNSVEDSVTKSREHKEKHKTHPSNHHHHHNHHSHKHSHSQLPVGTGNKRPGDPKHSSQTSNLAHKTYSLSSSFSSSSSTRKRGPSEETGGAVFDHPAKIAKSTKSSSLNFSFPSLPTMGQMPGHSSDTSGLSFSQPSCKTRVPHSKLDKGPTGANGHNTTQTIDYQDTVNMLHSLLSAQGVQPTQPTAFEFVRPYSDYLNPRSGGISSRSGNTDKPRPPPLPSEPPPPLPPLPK
PSKH1, sequence (P11801 whole entry): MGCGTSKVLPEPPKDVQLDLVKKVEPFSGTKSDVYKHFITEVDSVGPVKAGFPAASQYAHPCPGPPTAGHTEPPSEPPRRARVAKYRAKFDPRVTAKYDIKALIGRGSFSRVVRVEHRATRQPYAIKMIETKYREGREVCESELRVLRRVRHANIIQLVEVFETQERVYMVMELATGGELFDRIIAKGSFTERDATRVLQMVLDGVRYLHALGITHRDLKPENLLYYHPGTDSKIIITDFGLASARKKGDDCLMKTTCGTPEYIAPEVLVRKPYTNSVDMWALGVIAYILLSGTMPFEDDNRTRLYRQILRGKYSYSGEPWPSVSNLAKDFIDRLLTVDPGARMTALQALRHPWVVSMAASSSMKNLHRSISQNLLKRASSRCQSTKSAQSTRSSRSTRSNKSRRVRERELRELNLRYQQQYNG

IC50 (PIK3R4): > 10000 nM
IC50 (PSKH1): > 10000 nM
IC50 (BRDT): > 10000 nM
SMILES: Cc1ccc(NC(=O)c2ccc(CN3CCN(C)CC3)cc2)cc1Nc1nccc(-c2cccnc2)n1 [Imatinib]

SMILES: N#CCc1ccc(Nc2nc(NCCCN)cc(Nc3cc(C4CC4)[nH]n3)n2)cc1 [KAM]
median Log10 fold change (AAK1; 0.001 uM KAM): -0.03432
median Log10 fold change (AAK1; 0.01 uM KAM): -0.41
median Log10 fold change (AAK1; 0.1 uM KAM): -0.6175
median Log10 fold change (AAK1; 1 uM KAM): -0.6778
median Log10 fold change (AAK1; 10 uM KAM): -0.7219
IC50 (AAK1; AAK1, KAM-based affinity matrix, K562 lysates, read-out: RB50 (the source's name)): 8 nM
median Log10 fold change (CDK9; 0.001 uM KAM): -0.01348
median Log10 fold change (CDK9; 0.01 uM KAM): -0.02502
median Log10 fold change (CDK9; 0.1 uM KAM): -0.3345
median Log10 fold change (CDK9; 1 uM KAM): -0.6226
median Log10 fold change (CDK9; 10 uM KAM): -0.7136
IC50 (CDK9; CDK9, KAM-based affinity matrix, K562 lysates, read-out: RB50 (the source's name)): 112 nM
median Log10 fold change (GSK3A; 0.001 uM KAM): 0.002359
median Log10 fold change (GSK3A; 0.01 uM KAM): -0.1849
median Log10 fold change (GSK3A; 0.1 uM KAM): -0.4791
median Log10 fold change (GSK3A; 1 uM KAM): -0.5469
median Log10 fold change (GSK3A; 10 uM KAM): -0.4904
IC50 (GSK3A; GSK3A, KAM-based affinity matrix, K562 lysates, read-out: RB50 (the source's name)): 37 nM
median Log10 fold change (GSK3B; 0.001 uM KAM): 0.01354
median Log10 fold change (GSK3B; 0.01 uM KAM): -0.16
median Log10 fold change (GSK3B; 0.1 uM KAM): -0.4584
median Log10 fold change (GSK3B; 1 uM KAM): -0.606
median Log10 fold change (GSK3B; 10 uM KAM): -0.568
IC50 (GSK3B; GSK3B, KAM-based affinity matrix, K562 lysates, read-out: RB50 (the source's name)): 45 nM
median Log10 fold change (NEK9; 0.001 uM KAM): 0.04943
median Log10 fold change (NEK9; 0.01 uM KAM): -0.06045
median Log10 fold change (NEK9; 0.1 uM KAM): -0.3899
median Log10 fold change (NEK9; 1 uM KAM): -0.6054
median Log10 fold change (NEK9; 10 uM KAM): -0.6016
IC50 (NEK9; NEK9, KAM-based affinity matrix, K562 lysates, read-out: RB50 (the source's name)): 86 nM
0.01 uM KAM (MAP2K5): 0.01409
0.1 uM KAM (MAP2K5): -0.1362
1 uM KAM (MAP2K5): -0.4773
10 uM KAM (MAP2K5): -0.5729

Reference: publication PMC5513037, “Examining the influence of specificity ligands and ATP-competitive ligands on the overall effectiveness of bivalent kinase inhibitors” (Proteome Science, 2017)
